Assay results from patent US8883782B2, “Spiro-tetracyclic ring compounds as beta-secretase modulators and methods of use” (Amgen Inc., priority 2010, dated 2014).

What was measured:
[1] = test system: Aβ40 in conditioned medium of cells stably expressing Amyloid Precursor Protein (APP); test: In vitro BACE cell-based assay (Aβ40 in conditioned medium, sandwich ELISA); conditions: Homo sapiens, HEK293, average IC50; read-out: HEK cell assay
Outline: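 The sandwich ELISA pairs pAb40 capture (3 h, 4 °C) with 6E10 detection (2 h, 4 °C) and a streptavidin-europium TRF read-out. Supernatants come from APP-expressing cells grown in 10% FBS DMEM.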

[2] = target: Beta Secretase enzyme (BACE) (Homo sapiens, UniProt P56817); test: In vitro enzymatic BACE FRET (fluorescence resonance energy transfer) assay; type: biochemical; conditions: average IC50, enzyme assay; read-out: BACE 1 FRET assay
Outline: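 Fluorescence read after Tris quench to neutral pH. Reaction: 50 nM fluorophore/quencher peptide substrate, 1 h, in 0.05 M acetate pH 4.2, 10% DMSO final, 100 uM genapol.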

Sequence of Beta Secretase enzyme (BACE) (P56817 46-501, species assumed): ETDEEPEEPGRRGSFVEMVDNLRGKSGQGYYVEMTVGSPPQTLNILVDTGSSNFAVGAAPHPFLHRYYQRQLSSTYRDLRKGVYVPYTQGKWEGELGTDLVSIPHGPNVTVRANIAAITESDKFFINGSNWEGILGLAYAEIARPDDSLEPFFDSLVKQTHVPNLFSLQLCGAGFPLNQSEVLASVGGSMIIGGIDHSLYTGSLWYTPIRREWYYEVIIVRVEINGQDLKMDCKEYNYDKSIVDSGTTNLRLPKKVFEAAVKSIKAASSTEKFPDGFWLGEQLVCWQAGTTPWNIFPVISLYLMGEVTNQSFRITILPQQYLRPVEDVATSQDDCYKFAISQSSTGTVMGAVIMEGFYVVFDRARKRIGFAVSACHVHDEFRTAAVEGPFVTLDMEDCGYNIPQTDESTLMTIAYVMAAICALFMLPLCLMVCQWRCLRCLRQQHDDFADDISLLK

| IC50 [1] [nM] | IC50 [2] [nM] | SMILES |
| --- | --- | --- |
| 14 | 0.8 | NC1=N[C@@]2(CS1)c1cc(-c3cnccc3F)ccc1Oc1ncc(C3=CCCOC3)cc12 [Example 773, (5S)-3-(5,6-dihydro-2H-pyran-3-yl)-7-(4-fluoro-3-pyridinyl)spiro[chromeno[2,3-b]pyridine-5,4′-[1,3]thiazol]-2′-amine] |
| 17 | 0.6 | CC1(C)CC(c2cnc3c(c2)[C@]2(CSC(N)=N2)c2cc(-c4cccnc4F)ccc2O3)=CCO1 [Example 774, (5S)-3-(2,2-dimethyl-3,6-dihydro-2H-pyran-4-yl)-7-(2-fluoro-3-pyridinyl)spiro[chromeno[2,3-b]pyridine-5,4′-[1,3]thiazol]-2′-amine] |
| ≥ 10000 | 4830 | CC#Cc1cncc(-c2cnc3c(c2)[C@]2(COC(N)=N2)c2cc(OC)ccc2O3)c1 [Example 775, (5S)-7-methoxy-3-(5-(1-propyn-1-yl)-3-pyridinyl)spiro[chromeno[2,3-b]pyridine-5,4′-[1,3]oxazol]-2′-amine] |
| ≥ 10000 | 2380 | CC#Cc1cncc(-c2cc(F)c3c(c2)[C@]2(COC(N)=N2)c2cc(OC)ccc2O3)c1 [Example 776, (4S)-4′-fluoro-7′-methoxy-2′-(5-(1-propyn-1-yl)-3-pyridinyl)spiro[1,3-oxazole-4,9′-xanthen]-2-amine] |
| 3510 | 106 | CC#Cc1cncc(-c2cnc3c(c2)[C@]2(COC(N)=N2)c2cc(-c4cccnc4F)ccc2O3)c1 [Example 777, (5S)-7-(2-fluoro-3-pyridinyl)-3-(5-(1-propyn-1-yl)-3-pyridinyl)spiro[chromeno[2,3-b]pyridine-5,4′-[1,3]oxazol]-2′-amine] |
| 54 | 2.8 | N#Cc1cccc(-c2ccc3c(c2)[C@@]2(CSC(N)=N2)c2cc(C4=CCCOC4)cnc2O3)c1F [Example 778, 3-((5S)-2′-amino-3-(5,6-dihydro-2H-pyran-3-yl)spiro[chromeno[2,3-b]pyridine-5,4′-[1,3]thiazol]-7-yl)-2-fluorobenzonitrile] |
| 319 | 4.8 | CC1(C)C=C(c2cnc3c(c2)[C@]2(CSC(N)=N2)c2cc(-c4cccc(C#N)c4F)ccc2O3)CCO1 [Example 779, 3-((5S)-2′-amino-3-(6,6-dimethyl-3,6-dihydro-2H-pyran-4-yl)spiro[chromeno[2,3-b]pyridine-5,4′-[1,3]thiazol]-7-yl)-2-fluorobenzonitrile] |
| 338 | 2 | CC1(C#Cc2cnc3c(c2)[C@]2(CSC(N)=N2)c2cc(-c4cccc(C#N)c4F)ccc2O3)COC1 [Example 780, 3-((5S)-2′-amino-3-((3-methyl-3-oxetanyl)ethynyl)spiro[chromeno[2,3-b]pyridine-5,4′-[1,3]thiazol]-7-yl)-2-fluorobenzonitrile] |
| 3 | 0.3 | CC#Cc1cncc(-c2ccc3c(c2)[C@@]2(CSC(N)=N2)c2cc(-c4ccnc(F)c4)cnc2O3)c1 [Example 781, (5S)-3-(2-fluoro-4-pyridinyl)-7-(5-(1-propyn-1-yl)-3-pyridinyl)spiro[chromeno[2,3-b]pyridine-5,4′-[1,3]thiazol]-2′-amine] |
| 4 | 0.9 | CC#Cc1cncc(-c2ccc3c(c2)[C@@]2(CSC(N)=N2)c2cc(C#CC4(C)COC4)cnc2O3)c1 [Example 782, (5S)-3-((3-methyl-3-oxetanyl)ethynyl)-7-(5-(1-propyn-1-yl)-3-pyridinyl)spiro[chromeno[2,3-b]pyridine-5,4′-[1,3]thiazol]-2′-amine] |
| 10 | 0.6 | N#Cc1cc(-c2ccc3c(c2)[C@@]2(CSC(N)=N2)c2cc(C4=CCCOC4)cnc2O3)ccc1F [Example 783, 5-((5S)-2′-amino-3-(5,6-dihydro-2H-pyran-3-yl)spiro[chromeno[2,3-b]pyridine-5,4′-[1,3]thiazol]-7-yl)-2-fluorobenzonitrile] |
| 15 | 1.4 | CC1(C)C=C(c2cnc3c(c2)[C@]2(CSC(N)=N2)c2cc(-c4ccc(F)c(C#N)c4)ccc2O3)CCO1 [Example 784, 5-((5S)-2′-amino-3-(6,6-dimethyl-3,6-dihydro-2H-pyran-4-yl)spiro[chromeno[2,3-b]pyridine-5,4′-[1,3]thiazol]-7-yl)-2-fluorobenzonitrile] |
| 13 | 1.6 | CC1(C#Cc2cnc3c(c2)[C@]2(CSC(N)=N2)c2cc(-c4ccc(F)c(C#N)c4)ccc2O3)COC1 [Example 785, 5-((5S)-2′-amino-3-((3-methyl-3-oxetanyl)ethynyl)spiro[chromeno[2,3-b]pyridine-5,4′-[1,3]thiazol]-7-yl)-2-fluorobenzonitrile] |
| 41 | 10.5 | N#Cc1cc(-c2ccc3c(c2)[C@@]2(COC(N)=N2)c2cc(-c4ccnc(F)c4)cnc2O3)ccc1F [Example 786, 5-((5S)-2′-amino-3-(2-fluoro-4-pyridinyl)spiro[chromeno[2,3-b]pyridine-5,4′-[1,3]oxazol]-7-yl)-2-fluorobenzonitrile] |
| 44 | 5.6 | CC1(C#Cc2cnc3c(c2)[C@]2(COC(N)=N2)c2cc(-c4ccc(F)c(C#N)c4)ccc2O3)COC1 [Example 787, 5-((5S)-2′-amino-3-((3-methyl-3-oxetanyl)ethynyl)spiro[chromeno[2,3-b]pyridine-5,4′-[1,3]oxazol]-7-yl)-2-fluorobenzonitrile] |
| 59 | 5 | NC1=N[C@@]2(CS1)c1cc(-c3cnccc3F)ccc1Oc1ncc(-c3cccnc3F)cc12 [Example 788, (5S)-3-(2-fluoro-3-pyridinyl)-7-(4-fluoro-3-pyridinyl)spiro[chromeno[2,3-b]pyridine-5,4′-[1,3]thiazol]-2′-amine] |
| 9 | 2.2 | CC#Cc1cncc(-c2ccc3c(c2)[C@@]2(CSC(N)=N2)c2cc(-c4ncccn4)cnc2O3)c1 [Example 789, (5S)-7-(5-(1-propyn-1-yl)-3-pyridinyl)-3-(2-pyrimidinyl)spiro[chromeno[2,3-b]pyridine-5,4′-[1,3]thiazol]-2′-amine] |
| 97 | 14.5 | N#Cc1cccc(-c2ccc3c(c2)[C@@]2(CSC(N)=N2)c2cc(C4CCOCC4)cnc2O3)c1F [Example 790, 3-((5S)-2′-amino-3-(tetrahydro-2H-pyran-4-yl)spiro[chromeno[2,3-b]pyridine-5,4′-[1,3]thiazol]-7-yl)-2-fluorobenzonitrile] |
| 10 | 0.1 | NC1=N[C@@]2(CS1)c1cc(-c3cccnc3F)ccc1Oc1c(F)cc(C3=CCOCC3)cc12 [Example 791, (4S)-2′-(3,6-dihydro-2H-pyran-4-yl)-4′-fluoro-7′-(2-fluoro-3-pyridinyl)spiro[1,3-thiazole-4,9′-xanthen]-2-amine] |
| 30 | 5.1 | NC1=N[C@@]2(CO1)c1cc(-c3cccnc3)ccc1Oc1c(F)cc(N3CCCC3=O)cc12 [Example 792, 1-((4S)-2-amino-4′-fluoro-7′-(3-pyridinyl)spiro[1,3-oxazole-4,9′-xanthen]-2′-yl)-2-pyrrolidinone] |
| 4810 | 180 | CC1(COc2cc(F)c3c(c2)[C@@]2(CSC(N)=N2)c2cc(-c4cccnc4F)ccc2O3)COC1 [Example 793, (4R)-4′-fluoro-7′-(2-fluoro-3-pyridinyl)-2′-((3-methyl-3-oxetanyl)methoxy)spiro[1,3-thiazole-4,9′-xanthen]-2-amine] |
| 6 | 0.2 | CC1(COc2cc(F)c3c(c2)[C@]2(CSC(N)=N2)c2cc(-c4cccnc4F)ccc2O3)COC1 [Example 794, (4S)-4′-fluoro-7′-(2-fluoro-3-pyridinyl)-2′-((3-methyl-3-oxetanyl)methoxy)spiro[1,3-thiazole-4,9′-xanthen]-2-amine] |
| 10 | 0.5 | NC1=N[C@@]2(CS1)c1cc(-c3cccnc3)ccc1Oc1c(F)cc(C3=CCCOC3)cc12 [Example 795, (4S)-2′-(5,6-dihydro-2H-pyran-3-yl)-4′-fluoro-7′-(3-pyridinyl)spiro[1,3-thiazole-4,9′-xanthen]-2-amine] |
| 8 | 0.5 | NC1=N[C@@]2(CS1)c1cc(-c3cccnc3)ccc1Oc1c(F)cc(C3=CCOCC3)cc12 [Example 796, (4S)-2′-(3,6-dihydro-2H-pyran-4-yl)-4′-fluoro-7′-(3-pyridinyl)spiro[1,3-thiazole-4,9′-xanthen]-2-amine] |
| 7 | 0.6 | CC1(C)CC(=O)N(c2cc(F)c3c(c2)[C@]2(COC(N)=N2)c2cc(-c4cccnc4F)ccc2O3)C1 [Example 797, 1-((4S)-2-amino-4′-fluoro-7′-(2-fluoro-3-pyridinyl)spiro[1,3-oxazole-4,9′-xanthen]-2′-yl)-4,4-dimethyl-2-pyrrolidinone] |
| 8 | 1.4 | CC1(C)CC(=O)N(c2cc(F)c3c(c2)[C@]2(COC(N)=N2)c2cc(-c4cccnc4)ccc2O3)C1 [Example 798, 1-((4S)-2-amino-4′-fluoro-7′-(3-pyridinyl)spiro[1,3-oxazole-4,9′-xanthen]-2′-yl)-4,4-dimethyl-2-pyrrolidinone] |
| 18 | 1.5 | NC1=N[C@@]2(CS1)c1cc(-c3cccnc3)ccc1Oc1c(F)cc(N3CCOCC3)cc12 [Example 799, (4S)-4′-fluoro-2′-(4-morpholinyl)-7′-(3-pyridinyl)spiro[1,3-thiazole-4,9′-xanthen]-2-amine] |
| 20 | 0.4 | CC(C)(C#N)COc1cc(F)c2c(c1)[C@]1(CSC(N)=N1)c1cc(-c3cccnc3F)ccc1O2 [Example 800, 3-(((4S)-2-amino-4′-fluoro-7′-(2-fluoro-3-pyridinyl)spiro[1,3-thiazole-4,9′-xanthen]-2′-yl)oxy)-2,2-dimethylpropanenitrile] |
